The target in assay [1] is T1, human MMP-3 (Homo sapiens, UniProt P08254).
T1 construct: purchased Kabushiki Kaisha Yagai Chuo Kenkyusho YU-26003
As to the kind of experiment: Enzyme inhibition activity against MMP-3 (stromelysin-1), fluorescent peptide substrate NFF-3. As to conditions: human MMP-3, substrate NFF-3, 37° C. for 2 hours. It is filed as biochemical. The method, then:
The inhibition activity against human MMP-3 was measured using a fluorescent peptide substrate MOCAc-Arg-Pro-Lys-Pro-Val-Glu-Nva-Trp—Arg-Lys(Dnp)-NH2[NFF-3, manufactured by Peptide Institute, Inc. (No. 3168-v)] with reference to the method disclosed in a literature (Knight C. G. et al, FEBS Letters, Vol. 296, 263-266, 1992, Nagase H. et al, Journal of Biological Chemistry, Vol. 269, 20952-20957, 1994). Namely, into each well of a Fluoro Nunc plate (96C) white (No. 437842, manufactured by Nunc Co.), 180 μl of a MMP-3 solution (0.0125 unit/ml; No. YU-26003, manufactured by Kabushiki Kaisha Yagai Chuo Kenkyusho, purity: at least 99%), 10 μl of a test materials (the compound of the present invention) dissolved in DMSO and 10 μl of a peptide substrate […] (final concentration: 10 μM) were added and maintained at 37° C. for 2 hours in a dark place. Dilution of the enzyme was carried out by using 50 mM of Tris-HCl (pH 7.5) comprising 0.1M of NaCl, 10 mM of CaCl2, 0.05% Brij 35 and 0.02% of NaN3.
For the MMP-3 enzymatic activity, the amount of the decomposition product after the reaction was quantitatively analyzed as the change in the relative fluorescence intensity at a fluorescence wavelength of 400 nm with an excitation wavelength of 326 nm (using a variable fluorescence plate reader (variable wavelength type) Spectron FL-2575, manufactured by Towa Kagaku K. K.), and the inhibition activity of the test materials against the enzymatic activity was calculated by comparing the relative fluorescence intensities of the inhibitor added group and the non-added group after completion of the reaction.

Assay [2] deals with T2, human MMP-7 (Homo sapiens, UniProt P09237).
T2 construct: purchased Kabushiki Kaisha Yagai Chuo Kenkyusho YU-31001
T2 sequence (P09237 95-267): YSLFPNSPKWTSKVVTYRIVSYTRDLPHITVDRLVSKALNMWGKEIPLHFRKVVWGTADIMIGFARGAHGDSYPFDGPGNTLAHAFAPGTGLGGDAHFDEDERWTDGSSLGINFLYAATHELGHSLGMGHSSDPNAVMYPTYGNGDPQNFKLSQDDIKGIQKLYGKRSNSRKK
As to the kind of experiment: Enzyme inhibition activity against MMP-7 (matrilysin), fluorescent peptide substrate NFF-2. It is filed as biochemical. As to conditions: human MMP-7, substrate NFF-2, 37° C. for 2.5 hours. The method, then:
The inhibition activity against human MMP-7 was measured by the same method as the method for MMP-3, by using a MMP-7 solution (0.025 unit/ml; No. YU-31001, manufactured by Kabushiki Kaisha Yagai Chuo Kenkyusho, purity: at least 99.9%) and a fluorescent peptide substrate MOCAc—Arg-Pro-Lys-Pro-Tyr—Ala-Nva-Trp-Met-Lys(Dnp) -NH2 [NFF-2, No. 3167-v, manufactured by Peptide Institute, Inc.]. The enzymatic reaction was carried out at 37° C. for 2.5 hours in a dark place, and the relative fluorescence intensity was measured at a fluorescence wavelength of 400 nm with an excitation wavelength of 327 nm.

T1 sequence (P08254 100-477): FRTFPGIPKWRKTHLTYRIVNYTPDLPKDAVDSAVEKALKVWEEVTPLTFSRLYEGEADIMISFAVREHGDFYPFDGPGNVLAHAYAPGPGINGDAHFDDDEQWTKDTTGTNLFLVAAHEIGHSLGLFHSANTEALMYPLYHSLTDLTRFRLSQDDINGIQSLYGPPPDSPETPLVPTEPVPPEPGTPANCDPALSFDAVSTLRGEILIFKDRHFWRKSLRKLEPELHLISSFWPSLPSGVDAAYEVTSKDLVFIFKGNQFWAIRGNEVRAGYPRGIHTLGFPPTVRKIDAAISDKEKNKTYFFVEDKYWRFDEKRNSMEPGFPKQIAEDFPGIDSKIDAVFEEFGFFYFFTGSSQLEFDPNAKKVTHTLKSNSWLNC

As for `CS(=O)(=O)NC(=C[N+](=O)[O-])NNc1cc(C(F)(F)F)cc(Cl)n1` [Compound No. 157, N-(1-(6-chloro-4-trifluoromethyl-2-pyridyl)hydrazino-2-nitroethenyl)methanesulfonamide], the results for the IC50 in assay [1] and in assay [2] were 24.2 µM and 16.5 µM, respectively.
On to `CCOCCOc1cc(C(F)(F)F)cc(NNC(=C[N+](=O)[O-])NS(C)(=O)=O)n1` [Compound No. 164, N-(1-(6-(2-ethoxyethoxy)-4-trifluoromethyl-2-pyridyl)hydrazino-2-nitroethenyl)methanesulfonamide], for which the IC50 (commonly the concentration at which inhibition is half-maximal) in assay [1] was found to be 17.8 µM; in assay [2], 12 µM.
Regarding `CCOCCOc1cc(C(F)(F)F)cc(NNC(=C[N+](=O)[O-])NC)n1` [Compound No. 107], the IC50 was found to be 22.3 µM in assay [1] and 18.7 µM in assay [2].

(Values after patent US6596863B2, “Medical composition containing nitroetheneamine Derivative or salt there of as active constituent” (Ishihara Sangyo Kaisha, Ltd., priority 1998, dated 2003).)
